Source: patent US11708335B2, “Pyrimidine compounds useful as tyrosine kinase inhibitors” (STERNGREENE, INC., priority 2017, dated 2023)

Key:
NCI-H1975 cells = test: In vitro proliferation (MTT) of NCI-H1975 cells; format: cell-based; details: FIG. 4; for IC50: Homo sapiens, NCI-H1975 cells, EGFR(T790M) mutant, read-out: IC50, inhibition of NCI-H1975 cell proliferation; for activity against NCI-H1975 cells (proliferation): NCI-H1975 cells express the EGFR(T790M) mutant
Protocol: (§1) Example 1: MTT Assay Protocol
(§2) An MTT assay can be performed to screen compounds for suitability as an EGFR inhibitor. A sample MTT assay protocol is as follows:
(§3) SKBR3, BT474, MDA-MB-231, MDA-MB-453, MDA-MB-468, Ml: 5000 cells/well, 5% FBS; NE91, NR6 and NR6 derived cell lines: 2500 cells/well, 5% FBS; H1975: 5000 cells/well, 1% FBS).
(§4) Add 50 μl medium with different concentrations of inhibitors. Incubate at 37° C., 5% CO2 for 72 hrs.
(§5) Replace the medium with 100 μl of fresh medium. Leave at 37° C., 5% CO2 for 4 hrs.
(§6) Add 25 μl of MIT (5 mg/ml stock solution, final concentration 1 mg/ml) to each well. Incubate the microtrays for 2 hours at 37° C.
(§7) Add 100 μl extraction buffer (50% DMF/20% SDS at pH 4.7) to each well.
(§8) Incubate overnight at 37° C. and OD measurements at 570 nm.
(§9) A MTT assay protocol is also described in Hansen et al., “Re-examination and further development of a precise and rapid dye method for measuring cell growth/cell kill,” J. Immunol. Methods 119:203-210 (1989).
(§10) Essays conducted as outlined in Examples 1 and 2.

EGFR(C797S) = EGFR(C797S) (Homo sapiens, UniProt P00533, C797S); test: RBC HotSpot kinase assay, EGFR mutants, 10 μM ATP; format: biochemical; details: FIG. 3
Protocol: (§11) Example 2: RBC HotSpot Kinase Assay Protocol
(§12) An RBC HotSpot Kinase Assay can be performed to determine kinase activity data. A sample RBC HotSpot KinaseAssay protocol is as follows:
(§13) Reagent: Base Reaction buffer; 20 mM Hepes (pH 7.5), 10 mM MgCl2, 1 mM EGTA, 0.02% Brij35, 0.02 mg/ml BSA, 0.1 mM Na3VO4, 2 mM DTT, 1% DMSO
(§14) Add required cofactors individually to each kinase reaction.
(§15) Compound handling: Dissolve testing compounds in 100% DMSO to specific concentration. Serial dilution can be conducted using Integra Viaflo Assist in DMSO.
(§16) Prepare substrate in freshly prepared Reaction Buffer.
(§17) Deliver any required cofactors to the substrate solution above.
(§18) Deliver kinase into the substrate solution and gently mix.
(§19) Deliver compounds in 100% DMSO into the kinase reaction mixture by Acoustic technology (Echo550; nanoliter range) and incubate for 20 min at room temp.
(§20) Deliver ^33P-ATP (Specific activity 10 μCi/μl) into the reaction mixture to initiate the reaction.
(§21) Incubate for 2 hours at room temperature.
(§22) Detect radioactivity by filter-binding method.
(§23) Kinase activity data can be expressed as the percent remaining kinase activity in test samples compared to vehicle (dimethyl sulfoxide) reactions. IC50 values and curve fits can be obtained using Prism (GraphPad Software).
as §10

EGFR(L858R/T790M/C797S) = EGFR(L858R/T790M/C797S) (Homo sapiens, UniProt P00533, C797S/L858R/T790M); test: RBC HotSpot kinase assay, EGFR mutants, 10 μM ATP; format: biochemical; details: FIG. 3
Protocol: as §11, §12, §13, §14, §15, §16, §17, §18, §19, §20, §21, §22, §23, §10

[1] = target: EGFR(d746-750/T790M/C797 S) (Homo sapiens, UniProt P00533, C797S/DEL746-750/T790M); test: RBC HotSpot kinase assay, EGFR mutants, 10 μM ATP; format: biochemical; details: FIG. 3
Protocol: as §11, §12, §13, §14, §15, §16, §17, §18, §19, §20, §21, §22, §23, §10

A431 cells = test: In vitro proliferation (MTT) of A431 cells; format: cell-based; details: A431 cells express the wild type EGFR; FIG. 4
Protocol: as §1, §2, §3, §4, §5, §6, §7, §8, §9, §10

| IC50 (NCI-H1975 cells) [nM] | activity against EGFR(C797S) (EGFR(C797S)) | activity on EGFR(L858R/T790M/C797S) (EGFR(L858R/T790M/C797S)) | activity on EGFR(d746-750/T790M/C797 S) [1] | Compound | activity against A431 cells (proliferation) (A431 cells) | activity against NCI-H1975 cells (proliferation) (NCI-H1975 cells) | activity against NCI-H1975 cells (proliferation) (NCI-H1975 cells; listed as SG1-105) |
| --- | --- | --- | --- | --- | --- | --- | --- |
|  | very strong activity | good activity | good activity | CCOc1cc2ncnc(Nc3ccc(F)c(Cl)c3)c2cc1NC(=O)/C=C/CN(C)CCCO [SGI-078] | weak activity | better activity |  |
| 181 | very strong activity | good activity | good activity | CCOc1cc2ncnc(Nc3ccc(F)c(Cl)c3)c2cc1NC(=O)/C=C/CN(C)CCCOC [SGI-105] | weak activity | better activity | more active than SGI-078 |
